The test system of data set [1] is soluble epoxide hydrolase (sEH). Briefly: Fluorescent assay for mouse and human soluble epoxide hydrolase (CMNPC substrate). It is filed as biochemical. The conditions noted are these: recombinant sEH, CMNPC substrate 5 μM, 30° C. The text has this:
Fluorescent Assay for Mouse and Human Soluble Epoxide Hydrolase
Recombinant mouse sEH (MsEH) and human sEH (HsEH) were produced in a baculovirus expression system as previously reported. Grant et al., J. Biol. Chem., 268:17628-17633 (1993); Beetham et al., Arch. Biochem. Biophys., 305:197-201 (1993). The expressed proteins were purified from cell lysate by affinity chromatography. Wixtrom et al., Anal. Biochem., 169:71-80 (1988). Protein concentration was quantified using the Pierce BCA assay using bovine serum albumin as the calibrating standard. The preparations were at least 97% pure as judged by SDS-PAGE and scanning densitometry. They contained no detectable esterase or glutathione transferase activity which can interfere with the assay. The assay was also evaluated with similar results in crude cell lysates or homogenate of tissues.
The IC50s for each inhibitor were according to the following procedure: Substrate: [drawing 66]
Cyano(2-methoxynaphthalen-6-yl)methyl (3-phenyloxiran-2-yl)methyl carbonate (CMNPC; Jones P. D. et. al.; Analytical Biochemistry 2005; 343: pp. 66-75)
Bis/Tris HCl 25 mM pH 7.0 containing 0.1 mg/mL of BSA (buffer A)
CMNPC at 0.25 mM in DMSO.
Mother solution of enzyme in buffer A (Mouse sEH at 6 μg/mL and Human sEH at 5 μg/mL).
Inhibitor dissolved in DMSO at the appropriate concentration.
In a black 96 well plate, fill all the wells with 150 μL of buffer A.
Add 2 μL of DMSO in well A2 and A3, and then add 2 μL of inhibitor solution in A1 and A4 through A 12.
Add 150 μL of buffer A in row A, then mix several time and transfer 150 μL to row B. Repeat this row operation up to row H. The 150 μL removed from row H go to the trash.
Add 20 μL of buffer A in column 1 and 2, then add 20 μL of enzyme solution to column 3 to 12.
Incubate the plate for 5 minutes in the plate reader at 30° C.
During incubation prepare the working solution of substrate by mixing 3.68 mL of buffer A (4×0.920 mL) with 266 μL (2×133 μL (2×133 μL) of substrate solution).
At t=0, add 30 μL of working substrate solution with multi-channel pipette labeled “Briggs 303” and start the reading ([S]final: 5 μM).
Read with ex: 330 nm (20 nm) and em: 465 nm (20 nm) every 30 second for 10 minutes. The velocities are used to analyze and calculate the IC50s.

The text below walks through data of patent publication US20080076770A1, “SOLUBLE EPOXIDE HYDROLASE INHIBITORS” (Arete Therapeutics, Inc., priority 2006, published 2008).

Molecules are shown by their SMILES.

For `O=C(Nc1ccc(-n2ccnc2)cc1)NC12CC3CC(CC(C3)C1)C2` [Compound 1, 1-Adamantan-1-yl-3-[4-(1H-imidazol-1-yl)-phenyl]-urea], the melting point was 272 to 276 °C.

Compound `O=C(Nc1ccc(N2CCCC2=O)cc1)NC12CC3CC(CC(C3)C1)C2` [Compound 5, 1-Adamantan-1-yl-3-[4-(2-oxo-pyrrolidin-1-yl)-phenyl]-urea] came in with a melting point greater than 300 °C. The “% I” value in data set [1] (compound concentration 50 nM) was found to be 82%.

Compound `O=C(Nc1cccc(N2CCCC2=O)c1)NC12CC3CC(CC(C3)C1)C2` [Compound 10, 1-Adamantan-1-yl-3-[3-(2-oxo-pyrrolidin-1-yl)-phenyl]-urea] gave a melting point of 239 to 242 °C. Besides, the “% I” value in data set [1] (compound concentration 500 nM) came out at 88%.

`O=C(Nc1ccc(-n2ccnc2)cc1)Nc1ccc(C(F)(F)F)cc1` [Compound 11, 1-(4-(1H-imidazol-1-yl)-phenyl)-3-(4-trifluoromethyl-phenyl)-urea] displayed a melting point of 209 to 213 °C. In addition, the “% I” value in data set [1] (compound concentration 50 nM) was found to be 92%.

Consider `Cc1nccn1-c1ccc(NC(=O)Nc2ccc(C(F)(F)F)cc2)cc1` [Compound 12, 1-[4-(2-methyl-1H-imidazol-1-yl)-phenyl]-3-(4-trifluoromethyl-phenyl)-urea], for which the melting point lay in the range of 234 to 238 °C. For the same compound, in data set [1] (compound concentration 50 nM), the “% I” value is listed as 96%.

Compound `O=C(Nc1ccc(-n2cnc(Cl)c2Cl)cc1)Nc1ccc(C(F)(F)F)cc1` [Compound 13, 1-[4-(4,5-dichloro-1H-imidazol-1-yl)-phenyl]-3-(4-trifluoromethyl-phenyl)-urea] showed a melting point of 221 to 224 °C. The “% I” value in data set [1] (compound concentration 50 nM) is given as 95%.

Turning to `O=C(Nc1ccc(N2CCOCC2)cc1)Nc1ccc(C(F)(F)F)cc1` [Compound 14, 1-(4-Morpholin-4-yl-phenyl)-3-(4-trifluoromethyl-phenyl)-urea], the melting point fell in the range of 228 to 232 °C. For the same compound, the “% I” value in data set [1] (compound concentration 50 nM) was 87%.

As for `O=C(Nc1ccc(N2CCCC2=O)cc1)Nc1ccc(C(F)(F)F)cc1` [Compound 15], the melting point lay within 282 to 285 °C. For the same compound, the “% I” value in data set [1] (compound concentration 50 nM) came to 74%.

`O=C(Nc1ccc(C(F)(F)F)cc1)Nc1cccc(N2CCOCC2)c1` [Compound 19, 1-(3-Morpholin-4-yl-phenyl)-3-(4-trifluoromethyl-phenyl)-urea]: the melting point was in the range of 240 to 244 °C. Besides, the “% I” value in data set [1] (compound concentration 50 nM) is listed as 79%.

Compound `O=C(Nc1ccc(C(F)(F)F)cc1)Nc1cccc(N2CCCC2=O)c1` [Compound 20, 1-[3-(2-Oxo-pyrrolidin-1-yl)-phenyl]-3-(4-trifluoromethyl-phenyl)-urea] gave a melting point of 220 to 224 °C. Further, the “% I” value in data set [1] (compound concentration 50 nM) turned out to be 84%.
